Assay [1] has as its system Plasmodium falciparum. In words: Antimalarial activity: Gametocytes Plasmodium falciparum NF54 Gametocytes Stage V IC50 (uM). The assay is classed as functional, organism-based.
Assay [2] concerns Plasmodium falciparum. Nature of the assay: Antimalarial activity: Asexual Blood Stage Plasmodium falciparum 3D7 IC50 (uM). It is filed as functional, organism-based.
For assay [3], the system named is Plasmodium falciparum. In words: Antimalarial activity: Asexual Blood Stage Plasmodium falciparum Dd2 IC50 (uM). It is filed as functional, organism-based.
Assay [4] concerns HepG2. In words: HepG2 inhibition at 10 uM (%) Cytotoxicity. The assay is classed as functional. The settings on record: Homo sapiens.
Assay [5] concerns Plasmodium berghei. In words: Antimalarial activity: Liver Stage Plasmodium berghei sporozoite Luciferase assay: inhibition at 10 uM (%). It is filed as functional.
The test system of assay [6] is HepG2. Nature of the assay: Cytotoxicity data HepG2 CC20 (uM). The assay is classed as functional.
In assay [7] the test system is Plasmodium berghei. In words: Antimalarial activity: Liver Stage Plasmodium berghei sporozoite Luciferase assay IC50 (uM). It is filed as functional, organism-based.
Assay [8] concerns Plasmodium falciparum. Nature of the assay: Antimalarial activity: Asexual Blood Stage Plasmodium falciparum W2 IC50 (uM). The assay is classed as functional, organism-based.
Assay [9] relates to HepG2. In words: HepG2 CC50 (uM) Cytotoxicity. It is filed as functional. The settings on record: Homo sapiens.
Assay [10] deals with Plasmodium falciparum. In words: Antimalarial activity: Gametocytes Plasmodium falciparum NF54 Gametocytes Stage V: inhibition at 10 uM (%). The assay is classed as functional.
In assay [11] the test system is Mycobacterium tuberculosis. Nature of the assay: AntiMycobacterium tuberculosis activity 2-week 7H9/DPPC/cholesterol/BSA/Tx MIC (uM). The assay is classed as functional. The conditions noted are these: 336 h.
The subject of assay [12] is Mycobacterium tuberculosis. In words: AntiMycobacterium tuberculosis activity 2-week 7H9/ADC/Tw MIC (uM). It is filed as functional. The settings on record: 336 h.
Assay [13] has as its system Mycobacterium tuberculosis. In words: AntiMycobacterium tuberculosis activity 1-week 7H9/glucose/BSA/Tx MIC (uM). The conditions noted are these: 168 h. It is filed as functional.
In assay [14] the test system is Mycobacterium tuberculosis. Nature of the assay: AntiMycobacterium tuberculosis activity Non-Replicating form: Average MIC90 (uM). It is filed as functional.
The test system of assay [15] is Mycobacterium tuberculosis. Nature of the assay: AntiMycobacterium tuberculosis activity 1-week GAST/Fe MIC (uM). The assay is classed as functional. The settings on record: 168 h.
The subject of assay [16] is Mycobacterium tuberculosis. In words: AntiMycobacterium tuberculosis activity Replicating form: Average MIC90 (uM). The assay is classed as functional.
Assay [17] concerns HepG2. In words: HepG2 galactose CC50 (uM) Cytotoxicity. It is filed as functional.
Assay [18] deals with Mycobacterium tuberculosis. Nature of the assay: AntiMycobacterium tuberculosis activity 1-week 7H9/DPPC/cholesterol/BSA/Tx MIC (uM). It is filed as functional. The settings on record: 168 h.
The subject of assay [19] is Mycobacterium tuberculosis. In words: AntiMycobacterium tuberculosis activity 1-week 7H9/ADC/Tw MIC (uM). It is filed as functional. The settings on record: 168 h.
Assay [20] has as its system Mycobacterium tuberculosis. In words: (§1) AntiMycobacterium tuberculosis activity day 10 in 7H9/2.5mM butyrate/pH6/0.1mM nitrite MIC90 (uM). It is filed as functional. The conditions noted are these: 240 h.
For assay [21], the system named is Mycobacterium tuberculosis. In words: AntiMycobacterium tuberculosis activity 2-week Alamar Blue 7H9/cholesterol/BSA/Tx MIC (uM). The assay is classed as functional. The settings on record: 336 h.
Assay [22] concerns Mycobacterium tuberculosis. In words: AntiMycobacterium tuberculosis activity 1-week 7H9/cholesterol/BSA/Tx MIC (uM). It is filed as functional. The settings on record: 168 h.
Assay [23] relates to Mycobacterium tuberculosis. In words: AntiMycobacterium tuberculosis activity 2-week Alamar Blue 7H9/ADC/Tw MIC (uM). It is filed as functional. The settings on record: 336 h.
Assay [24] relates to HepG2. In words: HepG2 glucose CC50 (uM) Cytotoxicity. It is filed as functional.
Assay [25] has as its system Mycobacterium tuberculosis. The description is as §1. The assay is classed as functional. The conditions noted are these: 240 h. This is another data set of the same source.
Assay [26] concerns Mycobacterium tuberculosis. In words: AntiMycobacterium tuberculosis activity day 21 in 7H9/2.5mM butyrate/pH6/0.1mM nitrite MIC90 (uM). The settings on record: 504 h. The assay is classed as functional.
Assay [27] has as its system Mycobacterium tuberculosis. In words: AntiMycobacterium tuberculosis activity day 21 MIC99 in 7H9/2.5mM butyrate/pH6/0.1mM nitrite MIC99 (uM). It is filed as functional. The settings on record: 504 h.
The test system of assay [28] is Mycobacterium tuberculosis. Nature of the assay: AntiMycobacterium tuberculosis activity 2-week 7H9/glucose/BSA/Tx MIC (uM). It is filed as functional. The conditions noted are these: 336 h.
For assay [29], the system named is Mycobacterium tuberculosis. In words: AntiMycobacterium tuberculosis activity 2-week GAST/Fe MIC (uM). The assay is classed as functional. The conditions noted are these: 336 h.

Here are results for nine compounds from ChEMBL document CHEMBL3832761, “MMV Pathogen Box Bioactivity Data” (2017).

Broadly, the IC50 is the concentration that inhibits the measured activity by half. By inhibition is commonly meant the share of the control response that was lost under treatment. As usually defined, the Inhibition is the relative decrease from the control value, in per cent. Read a low Inhibition as a weak effect. A word on the CC50: it is the concentration at which the toxic effect on the cells reaches its halfway point. A low value points to greater toxicity to the cells. The MIC is the least concentration at which growth counts as inhibited. A low value points to greater potency. By MIC90 is commonly meant an inhibitory concentration at the 90% level, which refers to growth in some studies and to a panel of isolates in others.

Converted amounts (≈) assume the structure as drawn.

`CCc1ccc(C(NCc2nc(N)nc(N(C)C)n2)C(C)C)cc1` (stereo unspecified): the IC50 in the assay with Plasmodium falciparum [1] was 80 nM; in the assay with Plasmodium falciparum [2], > 2000 nM; in the assay with Plasmodium falciparum [3], > 2000 nM.
On to `Cc1ccc(-c2nc(CN(Cc3ccccn3)C(C)C)cs2)o1`, for which the IC50 is 450 nM in the assay on Plasmodium falciparum [1], > 2000 nM in the assay with Plasmodium falciparum [2] and > 2000 nM in the assay with Plasmodium falciparum [3]. The inhibition at 10 µM with HepG2 [4] is 47%.
Take `CN(C(=O)c1cc2c(-c3cncnc3)cccc2[nH]1)c1ccccc1`: the IC50 with Plasmodium falciparum [1] was 570 nM; with Plasmodium falciparum [2], 720 nM; in the assay with Plasmodium falciparum [3], 670 nM; with Plasmodium berghei [7], 1020 nM; with Plasmodium falciparum [8], 790 nM. Further, the Inhibition in the assay on Plasmodium berghei [5] amounted to 100%; in the assay with Plasmodium falciparum [10], 81%. Further, in the assay on HepG2 [6], the CC20 stood at 6040 nM. The CC50 with HepG2 [9] was > 10000 nM.
For the compound `CCCn1c(NC(=O)c2ccc3ccccc3n2)nc2ccccc21`, the IC50 is 560 nM in the assay on Plasmodium falciparum [1], > 2000 nM in the assay on Plasmodium falciparum [2] and > 2000 nM in the assay on Plasmodium falciparum [3]. For the same compound, at 10 µM the inhibition in the assay on HepG2 [4] was 24%.
Regarding `Cc1cc(C)nc(-n2nc(C)cc2Nc2ccccc2)n1`, the IC50 in the assay with Plasmodium falciparum [1] was 220 nM; in the assay on Plasmodium falciparum [2], > 2000 nM. This compound had an inhibition at 10 µM in the assay on HepG2 [4] of 7%.
Turning to `NS(=O)(=O)c1cccc(-c2ccc3ncc(N4CCOCC4)nc3c2)c1`, the IC50 in the assay on Plasmodium falciparum [1] turned out to be 1330 nM; in the assay with Plasmodium falciparum [2], 1500 nM; in the assay with Plasmodium falciparum [3], 1660 nM; in the assay on Plasmodium berghei [7], 1820 nM; in the assay on Plasmodium falciparum [8], 1850 nM. Besides, the Inhibition was 100% in the assay on Plasmodium berghei [5] and 92% in the assay on Plasmodium falciparum [10]. In addition, the CC20 in the assay on HepG2 [6] came to 7610 nM. Further, the CC50 with HepG2 [9] is > 10000 nM.
For `CCOC(=O)c1c(NC(=O)c2c(F)c(F)c(F)c(F)c2F)sc(C(N)=O)c1C`, the MIC in assay [11] was determined as 0.3 µM (≈ 0.127 µg/mL); in assay [12] it was 0.39 µM (≈ 0.165 µg/mL); in assay [13], 0.1 µM (≈ 0.0422 µg/mL); in assay [15], 0.07 µM (≈ 0.0296 µg/mL); in assay [18] it was 0.05 µM (≈ 0.0211 µg/mL); in assay [19], 0.1 µM (≈ 0.0422 µg/mL). For the same compound, the MIC is 0.39 µM (≈ 0.165 µg/mL) in assay [21]; 0.07 µM (≈ 0.0296 µg/mL) in assay [22]; 0.39 µM (≈ 0.165 µg/mL) in assay [23]; > 50 µM in assay [27]; 0.39 µM (≈ 0.165 µg/mL) in [28]; 0.1 µM (≈ 0.0422 µg/mL) in assay [29]. The MIC90 in [14] was 0.23 µM (≈ 0.0971 µg/mL); in assay [16], < 0.25 µM; in assay [20] it was > 50 µM; in assay [25] it was 0.78 µM (≈ 0.329 µg/mL); in [26] it was 6.25 µM (≈ 2.64 µg/mL). The CC50 in the assay on HepG2 [17] is > 50000 nM; in the assay with HepG2 [17] (Homo sapiens, HepG2), 48800 nM; in the assay on HepG2 [24], 23500 nM; in the assay with HepG2 [24] (Homo sapiens, HepG2), 31700 nM; in the assay with HepG2 [9] it was 4200 nM.
Consider `CCNC(=O)C(C)Nc1nc(-c2cccnc2)nc2sc(C)c(C)c12` (stereo unspecified), for which the IC50 was 610 nM in the assay with Plasmodium falciparum [1], > 2000 nM in the assay on Plasmodium falciparum [2] and > 2000 nM in the assay on Plasmodium falciparum [3]. Also, at 10 µM the inhibition in the assay on HepG2 [4] was 0%.
As to `COc1cccc(CC(=O)N2CCC(n3c(C)nc4ccc(F)cc43)CC2)c1`, the IC50 in the assay with Plasmodium falciparum [1] is 310 nM; with Plasmodium falciparum [2], 240 nM; in the assay on Plasmodium falciparum [3] it was 230 nM; in the assay with Plasmodium falciparum [8] it was 250 nM. Besides, the Inhibition with Plasmodium berghei [5] came to 38%; in the assay with Plasmodium falciparum [10], 72%. For the same compound, in the assay with HepG2 [6], the CC20 is >80000 nM. In the assay with HepG2 [4], this compound displayed an inhibition at 10 µM of 0%.
